# In patent publication US11542476B2, “Advanced pulmonary models” (EMULATE, INC., priority 2017, dated 2023):
# “Also recorded” adds a separate entry of the source.
# What was measured:
# [1] = test system: human neutrophil; assay: Neutrophil recruitment/attachment in Airway-on-Chip model of acute asthma exacerbation (HRV-16 infection, IL-13 stimulation); assay type: cell-based
# Description: In this embodiment, an exemplary respiratory virus, e.g., Rhinovirus, was added to the upper channel of the chip, IL-13 was used to stimulate cells, and neutrophils were added to the lower channel, see, FIG. 14A.
# See, FIG. 14B and FIG. 14C.
# HRV-16 is represented as small green dots in the upper channel while neutrophil cells (also described as polymorphonuclear leukocytes (PMN)) are represented as large purple spots in the lower channel. […] Treatments included HRV-16 alone infected cells, IL-13 alone treated cells, HRV-16 and (+) IL-13 treated cells, HRV-16+CXCR2in (inhibitor) treated cells, and HRV-16+IL-13+CXCR2in. […] FIG. 14C is a graphical comparison showing PMN (neutrophil) cells counts as % of untreated cells and cells treated with combinations shown for IL-13, HRV, and CXCR2 (in) treatments. Quantification of neutrophil recruitment (** p<0.01; **** p<0.001).
# [2] = test system: goblet cells; assay: IL-13 induced goblet cell hyperplasia in Airway-on-Chip (MUC5AC staining); assay type: cell-based, human
# Text: As an exemplary immuno-modulatory compound, addition of IL-13 to an Airway-on-Chip induced changes in epithelial cell layers in the upper channel with an air interface and endothelial cells in the lower channel under media fluid flow conditions are shown. It was discovered that IL-13 added to this embodiment of Airway-on-Chip effects both the epithelial cell layer in the upper channel with an air interface and the endothelial cells in the lower channel under media flow conditions. FIG. 9A is a schematic illustration showing IL-13 in the context of an Airway-on-Chip, where IL-13 effects both epithelial cells in the upper channel with an air interface and endothelial cells in the lower channel under flow (left). […] IL-13 is added to the endothelial channel at an exemplary 100 ng/ml for an exemplary 7 days.
# This hyperplasia effect can be inhibited by Tofacitinib, an inhibitor of the JAK/STAT pathway (Janus Kinase (JAK) and Signal Transducer and Activator of Transcription (STAT)).
# Creation of a Th2 microenvironment through IL-13 stimulation induces an asthma-like phenotype in the Airway Chip. Exacerbation is then triggered by infecting with human rhinovirus 16. […]
# [3] = test system: endothelial cells; assay: IL-13 effects on endothelial cells of Airway-on-Chip (adhesion molecule gene and protein expression); assay type: cell-based, human
# Text: Induced gene expression for adhesion molecules was also observed after IL-13 treatment, FIG. 9C. Examples of IL-13 induced Selectins (P and E) and ICAM-1 (Intercellular Adhesion Molecule 1) and VCAM-1 (vascular cell adhesion molecule-1). Doerr, “The condition-dependent proteome.” Nat Methods. 2016 Febuary; 13(2):117.
# Other compounds tested included Interleukin alpha (IL1A), Interleukin beta (IL1B), Interleukin-6 (IL6), Interleukin-8 (IL8), The chemokine (C-C motif) ligand 2 (CCL2), C-C Motif Chemokine Receptor 4 (CCR4), Protein Tyrosine Phosphatase, Receptor Type C (PTPRC), Intercellular Adhesion Molecule 1 (ICAM1), Selectin P (SELP), Selectin E (SELE), Prostaglandin-Endoperoxide Synthase 2 (PTGS2), Transforming Growth Factor Beta 1 (TGFB1), SMAD Family Member 7 (SMAD7), Complement C3 (C3), Angiotensin I Converting Enzyme (ACE), cluster of differentiation 34: CD34 antigen: CD34 molecule (CD34) and Nuclear Factor Of Activated T-Cells 4 (NFATC4).
# In one embodiment, an asthma phenotype was generated using IL-13 stimulation. This stimulation led to the activation of human endothelium at 48 hours of treatment. IL-13 induces vessel (endothelial cell) wall priming as part of recruitment of immune cells. […] IL-13 100 ng/mL (right panels) vs. no treatment controls (left panels) VE-Cadherin (red), ICAM-1 (green) in the upper panels. VCAM-1 (red) VE-Cadherin (green). […]
# [4] = test system: Human Airway Epithelium; assay: Cilia beating frequency on-chip; assay type: cell-based; conditions: IL-13 stimulation
# [5] = test system: HRV-16; assay: HRV-16 one step growth curves in infected Airway chips treated with IL-13 or not; assay type: cell-based, human rhinovirus 16; conditions: HRV-16 MOI=2
# Description: An exemplary virus, Human rhinovirus 16 (HRV16: A16 or type 16, referring to a single stranded RNA virus), in capsid form, was added at a multiplicity of infection of 2 to the upper channel and incubated at 33° C. for 3 hours. Infected chips (n=3) were washed apically (upper channel) daily and replicating virus in the wash fluid was quantified. HRV16 Titer (Log 10 TCID 50/mL) vs time post infection (hours). TCID50 refers to a tissue culture infectious dose, which will infect 50% if the cells in a monolayer challenged with the viral inoculum.
# [6] = test system: IFN-λ1, IP-10/CXCL10, IL-6 secretion; assay: Interferon, chemokine and cytokine secretion after HRV16 infection of Airway Chips; assay type: cell-based, human
# Text: HRV-16-induced interferons, chemokines and pro-inflammatory cytokines profile is altered by IL-13 treatment in the severe asthma chip as shown by high resolution, kinetic profiles of cytokine secretion. These graphs (FIG. 17A-C) show results using a method for identifying secretory phases (i.e. I, II, III, and IV) of essential inflammatory cytokines.
# FIG. 17A-C HRV-16-induced interferons, chemokines and pro-inflammatory cytokines profile is altered by IL-13 treatment in one embodiment of a severe asthma on-chip. These exemplary graphs show results from high resolution, kinetic profiles of an IFN Lambda 1 response FIG. 17A; IP-10/CXCL10 FIG. 17B; IL-6 response FIG. 17C; following HRV16 infection. A severe asthma on-chip was stimulated with IL-13 (lower red line and squares) while a duplicate chip was not stimulated with IL-13 (upper blue line and circles). IL-13 treatment was over 72 hours post infection. Data represent mean±SEM of cells from three to four different donors, with one or two biological replicates (chips) per donor.
# Charts show IFN-λ1 (pg/mL) and IP-10/CXCL10 (pg/mL) measured in apical and basal secretions collected at 24, 48 and 72 h post HRV16 infection comparing control, IL-13 alone, HRV-16 alone and combined treatments.
# Thus, IL-13 may delay or prevent IL-6-driven resolution of HRV-induced inflammation. Charts (i.e. readouts) show IL-6 (pg/mL) and IL-8 (pg/mL) measured in apical and basal secretions collected at 24, 48 and 72 h post HRV16 infection comparing control, IL-13 alone, HRV-16 alone and combined treatments.
# [7] = test system: host cells of Airway On-Chip; assay: TUNEL apoptosis staining on Airway On-Chip; assay type: cell-based, human; conditions: 3 μM for 3 h at 37° C.; positive control
# Description: One embodiment of an Airway On-Chip was infected as described above for 2 hours and then treated 50 μg/ml tetracycline for 24 h (top and bottom channels under flow) for 24 h in order to limit bacterial replication (to avoid over-replication and cell lifting). Using this methodology, we performed longer infections on an airway chip and avoided cell death at 24 h. At 24 h, chips were fixed with 4% paraformaldehyde for 15 minutes and subsequently permeabilized with 0.25% triton in PBS. Apoptosis staining was performed following the Click-iT™ Plus TUNEL Assay for In Situ Apoptosis Detection, Alexa Fluor 647 assay: Click-iT™ Plus TUNEL Assay, Thermo Fisher Scientific Inc., 6 Nov. 2017.
# The TUNEL assay is based on the incorporation of modified dUTPs by the enzyme terminal deoxynucleotidyl transferase (TdT) at the 3′-OH ends of fragmented DNA, a hallmark as well as the ultimate determinate of apoptosis. ClickiT™ Plus TUNEL assay with the Alexa Fluor™ 647 dye was utilized to detect the fragment DNA (purple), nuclei were labelled with DAPI.
# Staurosporin, a prototypical ATP-competitive kinase inhibitor, was used as a positive control in this assay. […] As an additional positive control, chips were treated with 1 unit of DNAse I for 30 minutes at room temperature to induce TUNEL positive DNA strand breaks.
# [8] = test system: P. aeruginosa; assay type: cell-based, Pseudomonas aeruginosa; conditions: lower concentrations
# Description: Mature small airway chips at air-liquid interface (ALI) were gently washed with PBS to remove excess mucus. Cells were inoculated with 2-3×10^6 colony forming units (CFUs) in Hank's balanced salt solution (HBSS) for 2 hours. At the end of the incubation, the inoculum was removed and the cells were washed 3× with phosphate buffer saline (PBS) to remove any nonadherent bacteria. PBS was removed and cells were incubated at ALI up to 24 hours (h) under flow in the bottom channel but not in the top channel.
# After an exemplary on-chip infection protocol, including removing nonadherent bacteria, a test compound was immediately added to the top (apical) and bottom (basal) channels then cells are cultured under flow using media containing the anti-microbial compound, for 24 hours. Exemplary test compound amounts are at least 0.1 μg/ml, up to 50 μg/ml, up to 100 μg/ml, up to 500 μg/ml. In one embodiment, an exemplary test compound is a drug Imipenem.
# More specifically, in one embodiment of an Airway on-chip, duplicate chips were infected with PA 5919 WT or PA 5890 Mutant as described herein. Then, Imipenem was added to apical and basolateral fluids (cell media) for treatment with Imipenem at 50, 100 and 500 μg/ml for 24 hours with at least one chip without Imipenem. […] Lysates were serially diluted for CFU quantification. […]
# Assay readouts: Viability of extracellular bacteria (apical sampling). […]
# [9] = test system: human neutrophil; assay: Neutrophil adhesion, crawling and trans-migration out of the endothelial channel, HRV-16 infected Airway-on-Chip; assay type: cell-based; conditions: HRV-16 24 hpi
# Text: Once recruited to the endothelium, neutrophil movement can be recorded and extravasation monitored as N (number) of spots vs. time (e.g. up to 300-600 seconds).
# Thus, migratory cell potential, as extravasation, is identified in graphs below each of these micrographs, FIG. 15A and FIG. 15B, showing the number of white spots (N spots) counted over time for each treatment. For HRV-16 infection alone, the number of spots decreases as the cells move into the cell layer, see, FIG. 15C. […] Extravasation in general refers to the movement of white blood cells into the tissues surrounding them (e.g. leukocyte extravasation), also known as diapedesis.
molecule,measurement,setting,value
IL-13: TH2 cytokine used to stimulate an asthma-like phenotype on-chip,neutrophil recruitment,[1]; IL-13+HRV vs either alone,additive increase in neutrophil recruitment
same,neutrophil recruitment,[1]; IL-13-treated chips vs non-stimulated chips,increased neutrophil recruitment
same,goblet cell hyperplasia,"[2]; IL-13 100 ng/ml, 7 days, endothelial channel",induced goblet cell hyperplasia
same,"adhesion molecule (ICAM-1, VCAM-1, VE-Cadherin) protein expression, immunostaining","[3]; IL-13 100 ng/mL, 48 hours",increased adhesion molecule expression
same,adhesion protein gene expression in endothelial cells (fold over non-treated),[3]; IL-13 treatment,up regulates adhesion proteins
same,cilia beating frequency,[4],reduces cilia beating frequency
same,HRV infectivity (HRV-16 growth),[5],does not alter HRV infectivity
same,epithelial interferon response after HRV-16 infection,"[6]; apical/basal secretions, 24-72 h post infection",impairs epithelial interferon response; also recorded: reduces HRV16-induced interferon response
same,"kinetic profile of IFN Lambda 1, CXCL10 and IL-6 secretion",[6]; over 3 days (72 hours) post HRV16 infection,"inhibits secretion of IFN Lambda 1, CXCL10 and IL-6"
same,HRV16-induced IL-6 secretion,"[6]; prior stimulation with IL-13, 24, 48, 72 h post infection",inhibited
CN[C@@H]1C[C@H]2O[C@@](C)([C@@H]1OC)n1c3ccccc3c3c4c(c5c6ccccc6n2c5c31)C(=O)NC4 [Staurosporin],apoptotic cell numbers (TUNEL),[7],increased apoptotic cell numbers
C[C@@H](O)[C@H]1C(=O)N2C(C(=O)O)=C(SCCN=CN)C[C@H]12 [Imipenem],permeability of airway cells to imipenem,[8],impermeable
C[C@@H]1CCN(C(=O)CC#N)C[C@@H]1N(C)c1ncnc2[nH]ccc12 [Tofacitinib],effect on IL-13 induced goblet cell hyperplasia,[2]; IL-13+Tofacitinib,inhibited
CC[C@@H](Nc1c(Nc2cccc(C(=O)N(C)C)c2O)c(=O)c1=O)c1ccc(C)o1 [MK-7123],inhibition of relevant physiological responses (neutrophil recruitment),[1]; CXCR2 antagonist 10 μM,greater than 90%
same,neutrophil attachment in the lower channel,"[1]; HRV-16 infections, with or without IL-13 stimulation",reduced neutrophil attachment
same,neutrophil recruitment,"[1]; MK-7123 10 microM, three stimulation conditions (HRV-16, IL-13, IL-13+HRV)",inhibits neutrophil recruitment; also recorded: significantly reduced neutrophil recruitment
same,neutrophil attachment in the lower channel,[1]; cells stimulated with IL-13 alone,increased attachment
same,adhesion of neutrophil cells on endothelial cell surfaces,"[9]; 10 microliters of CXCR2 inhibitor added to the lower channel, vs no treatment",reduced adhesion of neutrophil cells
same,"number of spots (neutrophil cells, N spots) counted over time (extravasation)",[9]; up to 600 seconds,remains about the same
same,neutrophil mobility (crawling) and trans-migration,"[9]; severe asthma chip, 10 μM",reduces neutrophil mobility and limits trans-migration
